Measurements taken from patent US20130281313A1, “PROGNOSTIC AND/OR PREDICTIVE BIOMARKERS AND BIOLOGICAL APPLICATIONS THEREOF” (INSTITUT GUSTAVE ROUSSY, priority 2010, published 2013).

Key:
[1] = test system: A549 cells; test: Transcriptome studies (mRNA microarrays); assay type: cell-based, human
Experimental: NSCLC A549 cells were treated with 100 μM CDDP, 75 μM C2-CER or 100 μM CdCl2 for 12 h, or with 50 μM CDDP, C2-CER or CdCl2 for 24 h. Thereafter, cells were collected and lysed for RNA extraction of following established procedures {de La Motte Rouge, 2007}. mRNA expression changes were quantified on G4112A 44 k Whole Human Genome Oligo Microarrays (Agilent Technologies, Santa Clara, USA), as previously reported {Castedo, 2006}. mRNA microarrays underwent standardized post-hybridization processing, image acquisition and analysis (see below) {Castedo, 2006}.
Data from microarray experiments were analyzed with the Rosetta Resolver® System (Rosetta Biosoftware, Seattle, USA). The threshold for statistical significance of probe signals (Intensity) was set at p=10^−5. […] For each mRNA, fold change (FC) was then defined as Intensitysample/Intensitycontrol when Intensitysample>Intensitycontrol, or as—(Intensitycontrol/Intensitysample) when Intensitysample<Intensitycontrol. Ratios were calculated as Intensitysample/Intensitycontrol.

[2] = test system: isolated rat liver mitochondria; test: Large-amplitude swelling of isolated mitochondria; settings: cell-free experiments
Experimental: Mitochondria were isolated from the liver of male Wistar Kyoto rats (Charles River Laboratories Inc., Wilmington, USA) by differential centrifugation, as previously described {Zischka, 2008}. Briefly, immediately after organ collection, livers were homogenized with a glass teflon homogenizer in an isolation buffer containing 10 mM triethanolamine, 10 mM acetic acid, 280 mM sucrose, 0.2 mM EGTA (pH adjusted to 7.4 with KOH). Homogenates were cleared from debris and nuclei by two rounds of centrifugation at 750 G (10 min, 4° C.). […]
For large-amplitude swelling determinations, mitochondria were resuspended in swelling buffer (10 mM Tris-MOPS pH 7.4, 200 mM sucrose, 5 mM succinate, 1 mM phosphate, 10 μM EGTA and 2 μM rotenone) and pre-incubated for 5 min at RT with swelling buffer (negative control) or either of the following permeability transition inhibitors: 5 or 10 μM bongkrekic acid (BA), 1 or 5 μM cyclosporine A (CsA); 0.1 or 0.5 mM reduced glutathione (GSH) or 0.5 or 2 mM N-acetylcysteine (NAC). […] Permeability transition-induced large-amplitude swelling was assessed by measuring light scattering of mitochondrial suspensions at 540 nm on a standard microplate absorbance reader (μ-Quant™, Bio-Tek, Bad Friedrichshall, Germany) every 5 min over a total assay time of 30 min (at RT), as previously described {Zischka, 2008}. […]

[3] = test system: Saccharomyces cerevisiae; test: Yeast clonogenic survival; assay type: cell-based; settings: yeast cells, pre-incubated with 1 mM AOAA before CDDP
Experimental: The haploid WT Saccharomyces cerevisiae strain BY4741 (MATa; his3Δ1; leu2Δ0; met15Δ0; ura3Δ0), its diploid counterpart BY4743 (MATa/MATα; his3Δ1/his3Δ1; leu2Δ0/leu2Δ0; MET15/met15Δ0; LYS2/lys2Δ0; ura3Δ0/ura3Δ0) as well as the null mutants employed in this study were obtained from were obtained from Euroscarf (Frankfurt, Germany). For large-scale experiments (see also FIG. 9), yeast cells were cultured on a routine basis at 28° C., on yeast extract peptone dextrose (YEPD) medium containing 1% yeast extract (Difco Laboratories, Detroit, USA), 2% bacto peptone (Difco Laboratories) and […] {Madeo, 2002}. […]
In all settings, cell number was then quantified by means of a CASY® cell counter (Schärfe System, Reutlingen, Germany) and 500 cells from each experimental condition were seeded on three parallel YEPD plates. Following 3 days of incubation at 28° C., plates were finally subjected to the quantification of colony forming units (CFUs). For each genotype or experimental condition, clonogenic survival was calculated as the ratio between the number of CFUs observed in treated and untreated conditions.

[4] = test system: A549 cells; test: Cytofluorometric assessment of cell death (DiOC6(3)/PI co-staining); assay type: cell-based, human; settings: A549 cells, 75 μM CDDP
Experimental: Unless otherwise specified, chemicals were purchased from Sigma-Aldrich (St. Louis, USA), culture media and supplements for cell culture from Gibco-Invitrogen (Carlsbad, USA) and plasticware from Corning (Corning, USA). […] Orlistat (Xenical®) was obtained from Roche (Basel, Switzerland). […] Undissolved material was removed by two sequential rounds of centrifugation at 12,000 G (5 min, room temperature, RT), supernatants were collected and stored at −80° C. under protection from light until use. In low-throughput experiments, all cell lines were treated with 2.5 mM pyridoxine (PN), exception made for A549 cells that received 5 mM PN.
To avoid depleting the siRNA library of selected sequences, siRNAs for validation experiments were purchased as custom molecules from Sigma-Aldrich. For low-throughput experiments, (see below for the transfection protocols employed in the siRNA screen), siRNA were transfected in A549 cells with Oligofectamine™ reagent (Invitrogen), following the manufacturer's instructions. Transfection with a non-targeting siRNA (siUNR) was employed as a negative control condition. Forty-eight hours after transfection, siRNA-mediated target downregulation was assessed by immunoblotting (see below).
All cytofluorometric determinations were carried out a FACSCalibur or a FACScan cytofluorometer (BD Biosciences, San Jose, USA) equipped with a 70 μm nozzle.
First line statistical analysis of cytofluorometric results was performed by using the CellQuest™ software (BD Biosciences), by gating on the events characterized by normal forward scatter and side scatter parameters. Apoptosis- and cell cycle-related data were further analyzed with Microsoft Excel (Microsoft Co., Redmond, USA) and statistical significance was assessed by means of two-tailed Student's t test (p<0.05).

[5] = 12 h, 100 μM CDDP, 75 μM C2-CER or 100 μM CdCl2, vs untreated cells
[6] = 24 h, 50 μM CDDP, C2-CER or CdCl2, vs untreated cells

[Cl][Cd][Cl] [CdCl2, cadmium chloride]
Fold change, ADAR (NM_001111) transcript [1, 5]: n.s.
Fold change, ALDH7AT (NM_001182) transcript [1, 5]: −1.65
Fold change, CD151 (NM_004357) transcript [1, 5]: n.s.
Fold change, CLIC1 (NM_001288) transcript [1, 5]: 4.60
Fold change, COMMO9 (NM_014186) transcript [1, 5]: 1.85
Fold change, COX5B (NM_001802) transcript [1, 5]: n.s.
Fold change, COX7C (NM_001867) transcript [1, 5]: n.s.
Fold change, DHRSX (NM_145177) transcript [1, 5]: 1.64
Fold change, EBP (NM_006579) transcript [1, 5]: n.s.
Fold change, EEF2 (NM_001901) transcript [1, 5]: n.s.
Fold change, FDXK (NM_003681) transcript [1, 5]: n.s.
Fold change, FN3KRP (NM_024619) transcript [1, 5]: −3.34
Fold change, HDLBP (NM_005336) transcript [1, 5]: n.s.
Fold change, HGD (NM_000187) transcript [1, 5]: −2.37
Fold change, IL6R (NM_000565) transcript [1, 5]: n.s.
Fold change, KHSRP (NM_003685) transcript [1, 5]: n.s.
Fold change, LOC389727 (NM_372092) transcript [1, 5]: 2.09
Fold change, MAT2A (NM_005911) transcript [1, 5]: −4.30
Fold change, MOL1 (NM_021960) transcript [1, 5]: 1.37
Fold change, MPP6 (NM_016447) transcript [1, 5]: −3.80
Fold change, OSTCL (NM_145303) transcript [1, 5]: n.s.
Fold change, P5MC5 (NM_002805) transcript [1, 5]: n.s.
Fold change, PLK1S1 (NM_018474) transcript [1, 5]: n.s.
Fold change, PPM1J (NM_005167) transcript [1, 5]: n.s.
Fold change, RNF26 (NM_032015) transcript [1, 5]: −1.77
Fold change, RRAD (NM_004185) transcript [1, 5]: 3.33
Fold change, SEMA3G (NM_000379) transcript [1, 5]: n.s.
Fold change, SLC22A16AS (NM_007105) transcript [1, 5]: −1.43
Fold change, SOCS6 (NM_004232) transcript [1, 5]: n.s.
Fold change, TMED1 (NM_006858) transcript [1, 5]: n.s.
Fold change, TRIP4 (NM_016213) transcript [1, 5]: n.s.
Fold change, UBE2L3 (NM_003347) transcript [1, 5]: n.s.
Fold change, UBE21 (NM_014176) transcript [1, 5]: −2.06
Fold change, W282 (NM_018029) transcript [1, 5]: 1.32
Fold change, ADAR (NM_001111) transcript [1, 6]: −1.33
Fold change, ALDH7AT (NM_001182) transcript [1, 6]: −1.82
Fold change, CD151 (NM_004357) transcript [1, 6]: n.s.
Fold change, CLIC1 (NM_001288) transcript [1, 6]: −1.29
Fold change, COMMO9 (NM_014186) transcript [1, 6]: 1.87
Fold change, COX5B (NM_001802) transcript [1, 6]: n.s.
Fold change, COX7C (NM_001867) transcript [1, 6]: n.s.
Fold change, DHRSX (NM_145177) transcript [1, 6]: 1.38
Fold change, EBP (NM_006579) transcript [1, 6]: n.s.
Fold change, EEF2 (NM_001901) transcript [1, 6]: n.s.
Fold change, FDXK (NM_003681) transcript [1, 6]: n.s.
Fold change, FN3KRP (NM_024619) transcript [1, 6]: −2.05
Fold change, HDLBP (NM_005336) transcript [1, 6]: n.s.
Fold change, HGD (NM_000187) transcript [1, 6]: −2.34
Fold change, IL6R (NM_000565) transcript [1, 6]: n.s.
Fold change, KHSRP (NM_003685) transcript [1, 6]: n.s.
Fold change, LOC389727 (NM_372092) transcript [1, 6]: n.s.
Fold change, MAT2A (NM_005911) transcript [1, 6]: −3.05
Fold change, MOL1 (NM_021960) transcript [1, 6]: 1.07
Fold change, MPP6 (NM_016447) transcript [1, 6]: n.s.
Fold change, OSTCL (NM_145303) transcript [1, 6]: n.s.
Fold change, P5MC5 (NM_002805) transcript [1, 6]: n.s.
Fold change, PLK1S1 (NM_018474) transcript [1, 6]: n.s.
Fold change, PPM1J (NM_005167) transcript [1, 6]: n.s.
Fold change, RNF26 (NM_032015) transcript [1, 6]: −1.51
Fold change, RRAD (NM_004185) transcript [1, 6]: 2.04
Fold change, SEMA3G (NM_000379) transcript [1, 6]: n.s.
Fold change, SLC22A16AS (NM_007105) transcript [1, 6]: −1.53
Fold change, SOCS6 (NM_004232) transcript [1, 6]: n.s.
Fold change, TMED1 (NM_006858) transcript [1, 6]: n.s.
Fold change, TRIP4 (NM_016213) transcript [1, 6]: n.s.
Fold change, UBE2L3 (NM_003347) transcript [1, 6]: n.s.
Fold change, UBE21 (NM_014176) transcript [1, 6]: −1.50
Fold change, W282 (NM_018029) transcript [1, 6]: n.s.
direct mitochondrion-permeabilizing effects [2]: can mediate direct mitochondrion-permeabilizing effects

NOCC(=O)O [AOAA, aminooxyacetic acid]
toxicity of CDDP upon addition of the CCBL1 inhibitor (clonogenic survival) [3]: reduced the toxicity of CDDP
toxicity of CDDP upon addition of the CCBL1 inhibitor [4]: reduced the toxicity of CDDP
